Data on two molecules can be found in PMC5131891, “Structural Insights into Streptococcal Competence Regulation by the Cell-to-Cell Communication System ComRS” (PLoS Pathogens, 2016).

Where “and” joins values, the source holds several entries; their conditions need not be identical. Equal values may be shown once. Peptide text beside a SMILES is read from it.

The target in data set [1] is ComR WT (Streptococcus thermophilus, UniProt A0A1L1QK15). Nature of the data set: biochemical. The following applies: KD. It counts as binding, Streptococcus thermophilus LMD-9. The method, then:
Purification of ComR-StreptagII proteins (StreptagII at C-terminus) was performed as described previously with some modifications. E. coli strain BL21 Gold cultures were grown in 2YT medium at 15°C until an OD600 of ~ 0.5, cooled down on ice for 10 minutes, and induced by addition of 0.2% of L-arabinose (wt vol^-1) before continuous shaking at 28°C for 4 h. Cells were then harvested by centrifugation (5,000 × g during 15 min at 8°C). The pellets were resuspended in cold buffer W (100 mM Tris-HCl pH 8.0, 150 mM NaCl, 1 mM EDTA) supplemented with 0.5 mg ml^−1 of lysozyme, incubated for 30 min at 4°C, and sonicated at 4°C. […] For structural and biophysical analyses, the purification protocol was completed by a size exclusion chromatography step using a HiLoad 16/600 Superdex 75 prep grade column (GE Healthcare) equilibrated in buffer W plus 10% (vol vol^-1) glycerol. Purified proteins were aliquoted, flash frozen and conserved at -20°C. Their purity was visualized by SDS-PAGE and their concentrations were measured using a Nanodrop apparatus (protein A280 method) (ThermoFisher Scientific).
Isothermal titration calorimetry (ITC) experiments were performed at 20°C in 20 mM Tris-HCl pH 8.0, 150 mM NaCl, 1 mM EDTA with an ITC200 calorimeter (Microcal). The protein concentration in the microcalorimeter cell and the peptide concentration in the syringe were set at 50 μM and 500 μM, respectively. A first injection of 0.4 μl, which was not taken into account for the fitting, was followed by 20 injections of 2 μl at intervals of 180 s. The peptide concentration used in the calculations is based on the weight of the lyophilized peptide and is therefore inaccurate because there may be a significant quantity of bound water, and salts or counter ions. However, the calculated number of binding sites, n, is always close to 1, in agreement with the 1:1 ratio observed in the crystal structure of the ternary complex. […] The data were analyzed using the MicroCal Origin software provided by the manufacturer. […] It was therefore not possible to distinguish the two events and the fitting was performed with the one-binding-site model. The calculated KD are therefore apparent values.

Data set [2] concerns the target ComR K100A (Streptococcus thermophilus, UniProt A0A1L1QK15, K100A). Put plainly: ITC, XIP binding on ComR K100A. Further details: species or system Streptococcus thermophilus LMD-9. The method, then:
(§1) Purification of ComR-StreptagII proteins (StreptagII at C-terminus) was performed as described previously with some modifications. E. coli strain BL21 Gold cultures were grown in 2YT medium at 15°C until an OD600 of ~ 0.5, cooled down on ice for 10 minutes, and induced by addition of 0.2% of L-arabinose (wt vol^-1) before continuous shaking at 28°C for 4 h. Cells were then harvested by centrifugation (5,000 × g during 15 min at 8°C). The pellets were resuspended in cold buffer W (100 mM Tris-HCl pH 8.0, 150 mM NaCl, 1 mM EDTA) supplemented with 0.5 mg ml^−1 of lysozyme, incubated for 30 min at 4°C, and sonicated at 4°C. […] Their purity was visualized by SDS-PAGE and their concentrations were measured using a Nanodrop apparatus (protein A280 method) (ThermoFisher Scientific).
(§2) Isothermal titration calorimetry (ITC) experiments were performed at 20°C in 20 mM Tris-HCl pH 8.0, 150 mM NaCl, 1 mM EDTA with an ITC200 calorimeter (Microcal). […] The peptide concentration used in the calculations is based on the weight of the lyophilized peptide and is therefore inaccurate because there may be a significant quantity of bound water, and salts or counter ions. However, the calculated number of binding sites, n, is always close to 1, in agreement with the 1:1 ratio observed in the crystal structure of the ternary complex. […] The calculated KD are therefore apparent values.
For orientation: In ITC the heat of successive injections is recorded.

The target in data set [3] is ComR T90A (Streptococcus thermophilus, UniProt A0A1L1QK15, T90A). Nature of the data set: ITC, XIP binding on ComR T90A. Further details: species or system Streptococcus thermophilus LMD-9. As for the experimental part:
as §1, §2

Data set [4] addresses ComR Y91A (Streptococcus thermophilus, UniProt A0A1L1QK15, Y91A). Put plainly: ITC, XIP binding on ComR Y91A. Further details: species or system Streptococcus thermophilus LMD-9. As for the experimental part: as §1, §2
Data set [5] has as its target ComR R92A (Streptococcus thermophilus, UniProt A0A1L1QK15, R92A). Put plainly: ITC, XIP binding on ComR R92A. Further details: species or system Streptococcus thermophilus LMD-9. As for the experimental part: as §1, §2
The target of data set [6] is ComR F171A/Y174A (Streptococcus thermophilus, UniProt A0A1L1QK15, F171A/Y174A). Put plainly: ITC, XIP binding on ComR F171A/Y174A. Further details: species or system Streptococcus thermophilus LMD-9. As for the experimental part: as §1, §2
For data set [7], the target named is ComR K87A/K246A (Streptococcus thermophilus, UniProt A0A1L1QK15, K246A/K87A). Put plainly: ITC, XIP binding on ComR K87A/K246A. Also noted: species or system Streptococcus thermophilus LMD-9. The method, then: as §1, §2
The target in data set [8] is ComR K87A/K246A (Streptococcus thermophilus, UniProt A0A1L1QK15, K87A/K246A). Nature of the data set: ITC, XIP binding on ComR K87A/K246A. Also noted: species or system Streptococcus thermophilus LMD-9. The following applies: ITC, ComR K87A/K246A. As for the experimental part:
as §1, §2

The conditions of data set [9]: compared with heptapeptide 18–24; ref [30]; cited from earlier work. The method, then: The corresponding synthetic XIP peptide […] as well as the variants used in the functional analysis were supplied by GenScript or Peptide 2.0 (Chantilly, VA) and resuspended at a concentration of 50 mM in 50% DMSO / 50% protein stora ...
Data set [10] concerns the target T1, ComR WT (Streptococcus thermophilus LMD-9, UniProt PDB:5JUB_1 1-310).
T1 sequence: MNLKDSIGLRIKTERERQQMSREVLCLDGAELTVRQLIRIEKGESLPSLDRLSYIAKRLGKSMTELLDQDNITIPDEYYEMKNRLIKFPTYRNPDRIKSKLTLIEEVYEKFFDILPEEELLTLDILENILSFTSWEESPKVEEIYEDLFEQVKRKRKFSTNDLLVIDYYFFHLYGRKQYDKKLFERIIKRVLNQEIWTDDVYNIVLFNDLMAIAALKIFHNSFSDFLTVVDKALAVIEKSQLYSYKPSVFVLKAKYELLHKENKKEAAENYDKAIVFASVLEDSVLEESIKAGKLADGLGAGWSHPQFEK
Put plainly: EMSA; XIP 0.2-1.2 uM; ComR 4 uM; EMSA: 20 mM Tris-HCl pH 8.0, 150 mM NaCl, 1 mM EDTA, 10% glycerol, 1 mg/ml BSA, 37 C 10 min, 40 ng DNA in 20 ul; crystal: 30% PEG 550 MME, 0.1 M MgCl2, 0.05 M Tris-HCl pH 8.5, 18 C. To be noted: protein: recombinant; tags: C-terminal StreptagII; chain copies: 2; label: Cy3 (Methods: Alexa 555), direct strand; blunt.

In data set [11] the target is T2, ComR K87A/K246A (Streptococcus thermophilus LMD-9, UniProt PDB:5JUB_1 1-310, K87A;K246A).
T2 sequence: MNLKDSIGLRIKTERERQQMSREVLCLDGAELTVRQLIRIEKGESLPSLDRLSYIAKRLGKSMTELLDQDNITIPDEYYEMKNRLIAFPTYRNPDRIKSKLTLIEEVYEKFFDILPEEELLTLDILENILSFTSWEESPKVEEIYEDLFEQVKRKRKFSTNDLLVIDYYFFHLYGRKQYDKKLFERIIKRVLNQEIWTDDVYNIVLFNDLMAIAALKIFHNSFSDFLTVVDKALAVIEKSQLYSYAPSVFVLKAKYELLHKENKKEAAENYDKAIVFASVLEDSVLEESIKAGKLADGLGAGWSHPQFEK
Nature of the data set: EMSA; XIP up to 1.2 uM; ComR 4 uM; EMSA: 20 mM Tris-HCl pH 8.0, 150 mM NaCl, 1 mM EDTA, 10% glycerol, 1 mg/ml BSA, 37 C 10 min, 40 ng DNA in 20 ul; crystal: 30% PEG 550 MME, 0.1 M MgCl2, 0.05 M Tris-HCl pH 8.5, 18 C. To be noted: protein: recombinant; tags: C-terminal StreptagII; chain copies: 2; label: Cy3 (Methods: Alexa 555), direct strand; blunt. A general note: A gel shift assay detects complexes by their altered migration in electrophoresis.

Data set [12] addresses T3, ComR E146A/D147A (Streptococcus thermophilus LMD-9, UniProt PDB:5JUB_1 1-310, E146A;D147A).
T3 sequence: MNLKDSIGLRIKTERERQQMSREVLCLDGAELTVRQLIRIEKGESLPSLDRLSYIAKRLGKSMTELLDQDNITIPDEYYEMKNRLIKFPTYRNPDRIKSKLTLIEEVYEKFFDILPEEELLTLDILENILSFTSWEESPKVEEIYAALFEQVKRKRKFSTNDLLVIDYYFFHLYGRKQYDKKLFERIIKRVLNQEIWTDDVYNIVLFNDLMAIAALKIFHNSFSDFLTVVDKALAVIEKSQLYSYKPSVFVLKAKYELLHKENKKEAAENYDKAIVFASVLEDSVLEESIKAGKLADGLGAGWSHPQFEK
Nature of the data set: EMSA; no XIP; ComR 4 uM; strong, multimeric complexes; EMSA: 20 mM Tris-HCl pH 8.0, 150 mM NaCl, 1 mM EDTA, 10% glycerol, 1 mg/ml BSA, 37 C 10 min, 40 ng DNA in 20 ul; crystal: 30% PEG 550 MME, 0.1 M MgCl2, 0.05 M Tris-HCl pH 8.5, 18 C. To be noted: protein: recombinant; tags: C-terminal StreptagII; chain copies: 2; label: Cy3 (Methods: Alexa 555), direct strand; blunt.

ComR Y91A, sequence (A0A1L1QK15 entry or part of it Y91A): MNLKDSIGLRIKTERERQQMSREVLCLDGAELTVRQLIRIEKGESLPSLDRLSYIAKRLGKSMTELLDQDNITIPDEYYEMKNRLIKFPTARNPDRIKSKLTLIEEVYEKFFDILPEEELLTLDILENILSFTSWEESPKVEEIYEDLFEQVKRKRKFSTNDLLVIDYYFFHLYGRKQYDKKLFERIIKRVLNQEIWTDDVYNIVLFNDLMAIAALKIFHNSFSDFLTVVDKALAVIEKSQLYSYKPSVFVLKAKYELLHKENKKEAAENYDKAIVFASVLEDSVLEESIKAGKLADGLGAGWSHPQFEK
ComR R92A, sequence (A0A1L1QK15 entry or part of it R92A): as the sequence (A0A1L1QK15 entry or part of it Y91A) above, with A91Y, R92A counted along it
ComR K100A, sequence (A0A1L1QK15 entry or part of it K100A): as the sequence (A0A1L1QK15 entry or part of it Y91A) above, with A91Y, K100A counted along it
ComR F171A/Y174A, sequence (A0A1L1QK15 entry or part of it F171A/Y174A): as the sequence (A0A1L1QK15 entry or part of it Y91A) above, with A91Y, F171A, Y174A counted along it
ComR T90A, sequence (A0A1L1QK15 entry or part of it T90A): as the sequence (A0A1L1QK15 entry or part of it Y91A) above, with T90A, A91Y counted along it

With `CC(C)C[C@H](NC(=O)[C@H](CS)NC(=O)CNC(=O)[C@H](C)NC(=O)[C@H](Cc1ccccc1)NC(=O)[C@H](Cc1ccc(O)cc1)NC(=O)[C@@H]1CCCN1C(=O)[C@@H](N)CC(C)C)C(=O)O` [XIP] (H-LPYFAGCL-OH), the Kd in data set [1] was 0.01 µM and 0.008 µM; in [2], 1.17 ± 0.245 µM; in data set [3] it was 0.244 ± 0.108 µM; in data set [4], 0.141 ± 0.033 µM; in data set [5] it was 0.277 ± 0.023 µM; in [6], 0.087 ± 0.009 µM. The same molecule had a Kd in [7] of 0.009 ± 0.003 µM. Also, the “KD value in words” value in data set [4] (ITC, ComR Y91A) was “same order of magnitude than observed with T90A mutant”. Also, the affinity in words entry in [5] (ITC, ComR R92A) is reported as “decreased affinity for XIP”; in [8], “did not affect the affinity of ComR for the XIP peptide”. For the same molecule, the stability entry in [9] is given as “more stable”.

B1: Cy3-boxPster_1655 wt (40 bp) (dsDNA)
DNA 1: CAAAATCGAGTAGTGACATTTATGTCACTACTTTTTTGTT
DNA 2: AACAAAAAAGTAGTGACATAAATGTCACTACTCGATTTTG
Regarding B1, the binding result was “binds” in data set [10], “no binding” in data set [11] and “binds” in data set [12].

The Kd is a measure of binding affinity in units of concentration. A lower Kd goes with higher affinity.
